Data published in publication PMC3131558, “Plitidepsin Has a Safe Cardiac Profile: A Comprehensive Analysis” (Marine Drugs, 2011).

How the values were obtained:
[1] = tested on: adult patients with advanced solid tumors or hematological malignancies; test: Multivariate logistic regression of variables associated with CAEs; format: in vivo, human; settings: overall multivariate analysis
Excerpt: To avoid potential bias, candidate variables were explored by univariate analysis regardless of the relationship attributed to the CAE with plitidepsin by the investigators (related, unrelated or unknown). Univariate logistic regression was used to study the relationship between the occurrence of a CAE and categorical and continuous patient and disease characteristics, and other observed toxicities or laboratory abnormalities. Those variables found to be clinically relevant and/or statistically significant (or of borderline significance) in this analysis were further assessed as covariates in a multivariate analysis using logistic regression with stepwise variable selection and multiple correspondence analysis methods.

[2] = tested on: human malignant cell lines; settings: in vitro and in vivo, at nanomolar concentration ranges; cited from earlier work
Excerpt: Aplidin® (plitidepsin) is a cyclic depsipeptide originally isolated from the Mediterranean tunicate Aplidium albicans and currently produced by chemical synthesis. Plitidepsin has been proven to be active against several human malignant cell lines both in vitro and in vivo at nanomolar concentration ranges.

[3] = Population PK exposure (Cmax, AUC0-28day) by CAE category; format: in vivo, human; settings: whole blood, mean (SD)
Description: Pharmacokinetic (PK) data available from individual clinical trials (four phase I studies and nine phase II studies; see details in Table 1) and/or simulated data using population PK analyses were correlated with the occurrence of CAEs. In the individual studies, doses ranged from 0.13 to 8.00 mg/m^2, and were administered as 1 h or 24 h infusion weekly, 3 h or 24 h infusion bi-weekly, or 1 h infusion for 5 consecutive days every 3 weeks. To evaluate the potential relationship between blood plitidepsin concentrations and QTc and HR values, a total of 90 patients who had ECGs performed during treatment with plitidepsin and PK data during first infusion were analyzed. The plitidepsin concentration at the time when the ECG had been obtained was calculated using the whole blood plitidepsin concentration at the ECG times in which they were simulated taking the individual Bayesian PK parameters of the final population PK model and considering the real treatment history of each patient. In total, 411 patients and 5585 plitidepsin concentration measurements (including 2900 blood and 2685 plasma concentrations) were pooled in the population PK analysis. An open, 3-compartment disposition model with linear elimination and linear distribution from the central compartment to peripheral compartments was used to describe the PK of plitidepsin in plasma. Between and within subject variabilities were assumed to be log-normally distributed. PK exposure parameters (maximum concentration in plasma (Cmax) and area under the curve (AUC) from day 0 to day 28) and other dose-independent PK parameters (clearance, half-life, etc.) were used to evaluate the relationship between patient PK characteristics and the appearance of CAEs. For the statistical analysis of the relationship between the exposure parameters and the development or not of a CAE, a logistic regression model was used to analyze the incidence of the event.

HERG = settings: preclinical, in vitro; cited from earlier work
Excerpt: (§1) Plitidepsin, a cyclic depsipeptide of marine origin, is an investigational drug currently in clinical development as a single agent as well as in combination with other anticancer agents for the treatment of different solid tumors and hematological malignancies. […] CAE ...

Purkinje fibers = settings: preclinical, in vitro; cited from earlier work
Excerpt: as §1

dog = settings: preclinical; cited from earlier work
Excerpt: as §1

[4] = tested on: guinea pig Langendorff preparation; settings: exploratory study; cited from earlier work
Excerpt: as §1

Q: With plitidepsin as the substance, how does the “OR for CAE: Tumor type, Prostate or pancreatic cancer” value ([1]; p = 0.0017) read?
A: 4.217

Q: And the “OR for CAE: Cardiac risk and relevant concomitant medication at baseline, Presence” value ([1]; p = 0.0072)?
A: 3.034

Q: What about the “OR for CAE: Hypokalemia (worst per patient), Grade ≥ 2” value ([1]; p = 0.0095) of the same substance?
A: 3.851

Q: And the “OR for CAE: Myalgia (at baseline), Presence” value ([1]; p = 0.0140)?
A: 5.015

Q: And the “OR for CAE: Hemoglobin (worst per patient), <10 g/dL” value ([1]; p = 0.0208)?
A: 2.195

Q: And the “Activity against several human malignant cell lines” value [2]?
A: active

Q: What about the “AUC0–28day” value ([3]; Irregular supraventricular tachycardia (n = 12), simulated) of the same substance?
A: 3197 (3640) h·ng/mL

Q: And the “AUC0–28day” value ([3]; Miscellaneous Cardiac Adverse Event (n = 7), simulated)?
A: 2645 (1672) h·ng/mL

Q: What about the “AUC0–28day” value ([3]; No Cardiac adverse Event (n = 375), simulated from population PK model) of the same substance?
A: 3374 (4336) h·ng/mL

Q: And the “AUC0–28day” value ([3]; Other myocardial injury (n = 4), simulated)?
A: 4791 (6136) h·ng/mL

Q: And the “AUC0–28day” value ([3]; Possible ischemic related (n = 7), simulated)?
A: 3668 (1696) h·ng/mL

Q: What about the “AUC0–28day” value ([3]; Regular supraventricular tachycardia (n = 6), simulated) of the same substance?
A: 5277 (3997) h·ng/mL

Q: And the “AUC0–28day” value ([3]; Rhythm Abnormalities (n = 25), simulated)?
A: 3435 (3372) h·ng/mL

Q: And the “Cardiotoxic profile in HERG assay” value (HERG)?
A: did not show a cardiotoxic profile

Q: And the “Cardiotoxic profile in study using Purkinje fibers” value (Purkinje fibers)?
A: did not show a cardiotoxic profile

Q: What about the “Cardiotoxic profile in in vivo study in the dog” value (dog) of the same substance?
A: did not show a cardiotoxic profile

Q: What about the “Cardiac effects of escalating doses in guinea pig Langendorff preparation” value [4] of the same substance?
A: did not show a cardiotoxic profile
